# Test results from patent US12102607B2, “C5aR inhibitors for use in the treatment of chemotherapy-induced iatrogenic pain” (Dompe' Farmaceutici S.P.A., priority 2017, dated 2024).
# Tests used:
# [1] = test system: DRG neurons; assay: Electrophysiological recordings (whole-cell patch-clamp, current-clamp) of DRG-derived neurons; assay type: cell-based, Sprague Dawley rat
# Method: (§1) Dorsal Root Ganglion neurons were obtained by dissociation of post natal (P2) Sprague Dawley rat ganglia (Envigo, Bresso Italy), following well-defined protocols (O'Meara et al, 2011; Owen et al, 2012). To minimize introduction of contaminating cells into the culture, any excessively long roots were trimmed from DRGs. After the isolation, DRGs were enzymatically dissociated as follows: • 20 minutes of 1.5 mg/ml papain exposure at 37° C., • 30 minutes of 4 mg/ml collagenase exposure at 37° C.
# Dorsal Root Gangliar (DRG)-derived neurons were cultured for 7 days and then treated in blind with the following combinations: 10 nM Paclitaxel, 10 nM Paclitaxel+1 μM DF3966Y, 1 μg/ml C5a, 1 μg/ml C5a+1 μM DF3966Y.
# The compounds were administered for 1 min 30 sec (short acute stimulation) or 5 minutes (long chronic stimulation). The application of the compounds was followed by a wash-out in the physiological control solution for an equivalent time (about 10 min).
# Electrophysiological recordings were performed by the patch-clamp technique in the whole-cell configuration. The standard extracellr solution was bath applied and contained the following (mM): NaCl 135, KCl 2, CaCl2 2, MgCl2 2, hepes 10, glucose 5, pH 7.4. The standard pipet solution contained the following (mM): potassium aspartate 130, NaCl 10, MgCl2 2, CaCl2 1.3, EGTA 10, Hepes 10, pH 7.3. Recordings were acquired by the pClamp8.2 software and the MultiClamp 700A amplifier (Axon Instruments), in current-clamp mode.
# [2] = test system: acetylated α-Tubulin; assay: In-cell western analysis of acetylated α-Tubulin in DRG neurons; assay type: cell-based, Sprague Dawley rat; settings: for Acetylated α-Tubulin (% of UT): DRG neurons
# Method: as §1
# (§2) Subsequently, cells were mechanically dissociated with a fire polished glass Pasteur pipette, in order to obtain a single cell suspension.
# (§3) Once dissociation was achieved, cells were seeded onto 96 black multiwell plates coated with Laminin (10 ug/mL, overnight at Room Temperature, RT) at selected densities. Following 1 week of incubation in DMEM high glucose medium supplemented with 10% FBS, 1× N2, 1× B27, 100 IU/mI penicillin, […] streptomycin, cells were treated according to experimental needs.
# Dorsal Root Ganglion neurons isolated as previously reported were subjected to the following experimental challenge scheme as depicted in FIG. 10.
# Paclitaxel, C5a and drugs were administered 24 hr prior the in-cell western experiment. Following 24 hr of treatment with appropriate stimuli as previously indicated, cells were washed with 1×PBS and fixed with 3,7% formaldehyde for 15 min. After the removal of fixing solution, cells were washed with 1×PBS and permeabilized with 1×PBS-0,1% Triton X-100 for 5 min at RT. Cells were then stained over night at 4° C. with the anti-acetylated α-Tubulin antibody, diluted 1:500 in Odyssey Blocking buffer, following manufacturer's protocol.
# The next day, cells were washed with 1×PBS-0.1% Tween20, and stained with the secondary antibody (diluted 1:800 in Odyssey Blocking buffer, as recommended by the protocol) and with the CellTag 700Stain […]. To lower the background, Tween20 at a final concentration of 0.2% was added to the Odyssey Blocking buffer. 96-well plates were then read at Odyssey CLx Imaging system and images acquired. Data analysis was carried out by the use of Image Studio 2.1 software.
# Paclitaxel was given to the DRG neurons following 7 days of culture at the concentration of 200 nM (Scuteri et al. 2006).
# Effect of DF3966Y in C5α-induced neuronal toxicity In order to determine whether the observed effects may be triggered also by C5a, recombinant mouse C5a 1 μg/ml (111.11 nM) was given to the DRG neurons after 7 days of culture in presence or absence of DF3966Y 1 μM.
# After 24 hr of incubation, acetylated α-Tubulin was quantified using in-cell western technique, as previously described.
# [3] = test system: DRG neurons; assay: Synapse number on DRG neurons (synaptotagmin staining, image analysis); assay type: cell-based, Sprague Dawley rat; settings: for % of synapse number: relative to UT
# Method: as §1, §2, §3
# (§4) Alpha Tubulin Acetylation DRG-derived neurons were cultured for 7 days and then treated with:
# (§5) • paclitaxel (200 nM, 500 nM, 1 μM and 5 μM, 20 μM) in presence or absence of DF3966Y (0.1, 1 and 10 μM) or DF2593A (0.1, 1 and 10 μM) • or C5a (500 ng/ml and 1 μg/ml) in presence or absence of DF3966Y (1 μM)
# (§6) After 24 hr of treatment, cells were stained by immunofluorescence.
# (§7) Cells were fixed with saccharose-paraformaldehyde then staining was performed overnight. Primary antibodies (anti—Ill Tubulin and anti-synaptotagmin 1) were diluted 1:500 in 1×PBS-4% BSA-2% Normal goat serum and 0.3% Triton x-100. The next day, cells were washed with 1×PBS-4% BSA and secondary antibodies were used diluted 1:500 in 1×PBS-4% BSA-2% Normal goat serum and 0.3% Triton x-100. After 1 hr of incubation, cells were washed with 1×PBS. Hoechst was used as a counterstain.
# (§8) Sixteen images per well were taken with ArrayScan XTI HCA Reader (Thermo Fisher Scientific) with and 40× objective. All the analysis were done with HCS Studio software
# For synapse count a threshold has been set, in particular all the objects, positive to synaptotagmin staining, in the range 0.365-2.457 μm^2 have been considered as synapses.
# (§9) Cells number, synapse number and dentritic arborization were evaluated in untreated cells and in cells stimulated with paclitaxel and C5a alone or in presence of the drug. As marker of chemotherapy-induced toxicity, the total number of synapses on DRG neurons was quantitative evaluated as percentage of the number of synapse with respect to untreated (UT) control.
# (§10) Data are obtained as the sum of the values obtained by the analysis of sixteen fields per well for each experiment. Percentage of the values in respect to the relative mean untreated group was calculated. Mean of the percentages from 4 separate experiments was plotted in the following Tables 2-7.
# [4] = test system: DRG neurons; assay: Dendritic tree area of DRG neurons (image analysis); assay type: cell-based, Sprague Dawley rat; settings: for % dendritic tree area: relative to UT
# Method: as §1, §2, §3, §4, §5, §6, §7, §8
# Dendritic arborization directly influences synaptic genesis and input. A well-developed arborization indicates a functional synaptic network. For this reason, the area occupied by dendritic arborization has been quantified.
# as §10
# [5] = test system: DRG neurons; assay: Cells number of DRG neurons (immunofluorescence, image analysis); assay type: cell-based; settings: for % of cell number: relative to UT
# Method: as §1, §2, §3, §4, §5, §6, §7, §8, §9, §10
smiles,measurement,setting,value
"CC(=O)O[C@H]1C(=O)[C@@]2(C)[C@H]([C@H](OC(=O)c3ccccc3)[C@]3(O)C[C@H](OC(=O)[C@H](O)[C@@H](NC(=O)c4ccccc4)c4ccccc4)C(C)=C1C3(C)C)[C@]1(OC(C)=O)CO[C@@H]1C[C@@H]2O [Paclitaxel, reference compound]","action potential firing rate vs CTRL, immediate","[1]; 10 nM Paclitaxel alone, immediate phase",+54.64%
same,"electrical activity vs CTRL, longer times of exposure","[1]; 10 nM Paclitaxel alone, longer times of exposure",−83.51%
same,change in acetylated α-Tubulin with respect to control (UT) cells,[2]; Paclitaxel 200 nM alone,marginal yet significant increase
same,Acetylated α-Tubulin (% of UT),"[2]; Paclitaxel 200 nM alone, 24 hr",111.41 % of UT
same,% of synapse number,[3]; PAC alone (Table 4),88.02 ± 2.99%
same,effect on synapse number,[3]; Paclitaxel alone,marked decrease in synapse number
same,% dendritic tree area,[4]; PAC alone (Table 6),92.22 ± 3.47%
same,area occupied by dendritic arborization,[4]; Paclitaxel alone,non-significant decrease
same,effect on cell number,[5]; Paclitaxel alone,slight decrease in cell number
same,% of cell number,[5]; Paclitaxel alone (Table 2),88.87 ± 6.04%
"C[C@H](c1ccc(Nc2nc(C(F)(F)F)cs2)cc1)c1nnn[nH]1 [DF3966Y, 1-N-[4-[(1R)-1-(1H-tetrazol-5-yl)ethyl]phenyl}-4-(trifluoromethyl)-11,3-thiazol-2-amine]",alteration of electrical activity under Paclitaxel plus drug,"[1]; 10 nM Paclitaxel + 1 μM DF3966Y, first immediate phase and longer time of exposure",no significant alteration of electrical activity
same,"inhibition of electrical activity under C5a plus drug, longer time of exposure","[1]; 1 μg/ml C5a + 1 μM DF3966Y, longer time of exposure (3-5 minutes)",about 35%
same,"alteration of electrical activity under C5a plus drug, short time points","[1]; 1 μg/ml C5a + 1 μM DF3966Y, short time points",no significant alteration of the electrical activity
same,levels of acetylated α-Tubulin under C5a plus drug,"[2]; DF3966Y 1 μM + C5a 1 μg/ml, 24 hr",significantly reduced the challenge induced by C5a exposure
same,Acetylated α-Tubulin (% of UT),"[2]; drug 0.1 μM under Paclitaxel 200 nM, 24 hr",76.45 % of UT
same,Acetylated α-Tubulin (% of UT),"[2]; drug 1 μM under Paclitaxel 200 nM, 24 hr",65.16 % of UT
same,Acetylated α-Tubulin (% of UT),"[2]; drug 10 μM under Paclitaxel 200 nM, 24 hr",89.05 % of UT
same,reversal of Paclitaxel-induced increase in acetylated α-Tubulin,"[2]; drug 0.1, 1, 10 μM, Paclitaxel 200 nM",significantly reverted the Paclitaxel-induced challenge
same,% of synapse number,[3]; DF3966Y 1 μM + C5a (Table 5),111.33 ± 9.27%
same,% of synapse number,[3]; DF3966Y 1 μM + PAC (Table 4),92.04 ± 21.01%
same,effect on Paclitaxel-induced decrease in synapse number,[3]; DF3966Y 1 μM + paclitaxel,significantly counteracted Paclitaxel-induced effect
same,% of synapse number,[3]; DF3966Y 1 μM alone (Table 4),99.89 ± 12.94%
same,% of synapse number,[3]; DF3966Y 1 μM alone (Table 5),99.89 ± 12.94%
same,% dendritic tree area,[4]; DF3966Y 1 μM + C5a (Table 7),106.45 ± 9.43%
same,% dendritic tree area,[4]; DF3966Y 1 μM + PAC (Table 6),101.21 ± 7.97%
same,effect on paclitaxel-induced decrease of dendritic arborization area,[4]; DF3966Y 1 μM + paclitaxel,seems to counteract such a decrease
same,% dendritic tree area,[4]; DF3966Y 1 μM alone (Table 6),103.07 ± 8.17%
same,% dendritic tree area,[4]; DF3966Y 1 μM alone (Table 7),103.07 ± 8.17%
same,% of cell number,[5]; DF3966Y 1 μM + C5a (Table 3),96.65 ± 10.77%
same,% of cell number,[5]; DF3966Y 1 μM + PAC (Table 2),98.83 ± 12.49%
same,% of cell number,[5]; DF3966Y 1 μM alone (Table 2),101.55 ± 10.59%
same,% of cell number,[5]; DF3966Y 1 μM alone (Table 3),96.96 ± 6.45%
same,effect on cell number,[5]; DF3966Y administered alone or with PAC,did not exert any significant effect on cell number
